The test system of assay [1] is AB-RNA. In words: Hybrid capture on streptavidin-coated paramagnetic beads (AB-RNA : biotinylated oligonucleotide RBS-96-60). It is filed as binding. The text has this:
SA coated paramagnetic beads: The washing step required when using SA-beads can be facilitated by using paramagnetic-SA coated beads (PMP-SA). These beads are commercially available (Promega, Madison, Wis.) and can be concentrated and held by a magnet. Positioning the magnet under the plate during washing steps concentrates and retains the beads at the bottom of the well during the washing procedure thus preventing loss of beads and allowing faster operation. An example of the use of this method is described in Example 2 below. The [^32P]-labelled ATP-binding RNA described in Example 1 above (AB-RNA) was heat denatured at 90° C. for 2 min in binding buffer (50 mM Tris pH 7.5, 200 mM NaCl, and 10 mM MgCl2) and chilled on ice for 2 min. 37.5 μl aliquots of the heat denatured AB-RNA were then mixed with 12.5 μl of a solution containing 12.5 pmol of the 5′-biotinylated oligonucleotide RBS-96-60 (having a nucleotide sequence identical to RBS-87-8A described in Example 1 above) and varying amounts of ATP or UTP. After a brief incubation at room temperature, the mixture was transferred into 96-well plates containing 0.5 mg paramagnetic beads coated with streptavidin (PMP-SA) (Promega, Madison, Wis.). Plates were incubated at room temperature for 15 min to allow binding. […] [^32P]-labelled AB-RNA bound to the beads was then quantitated by Cerenkov counting in a Microbetta LSC-counter (Wallac).

Assay [2] concerns AB RNA. In words: SCAN assay under equilibrium conditions (dissociation of pre-formed AB RNA:oligonucleotide complexes). In kind it is binding. The note with it: 100 μM ATP, 20 nM AB RNA, 100 nM oligonucleotide. The source says: A screening assay having this configuration has the advantage of removing time constraints for various steps in the assay. In addition, thermodynamic parameters associated with ligand binding can be more easily derived from the results of the assay. Using a series of oligonucleotides of various length and target sites comprising AB RNA, a group of oligonucleotides has been identified that fully equilibrate with ATP (an example is shown in FIG. 20, top panel). The oligonucleotide used is complementary to the sequence shown in bold-faced letters (FIG. 20, top panel). Target RNA:oligonucleotide complexes were pre-formed by incubated a solution containing 100 nM AB RNA and 500 nM oligonucleotide for 2 h at 25° C. Dissociation was initiated by diluting the reaction 5-fold in the presence or absence of 100 μM ATP (resulting in final concentrations of AB RNA, 20 nM; oligonucleotide, 100 nM; ATP, 100 μM). Binding of hybrids to nitrocellulose filters was performed as described above.

For assay [3], the system named is AB RNA. In words: UV absorbance (260 nM) thermal melting of AB RNA. In kind it is binding. As for the experimental part:
The experiment described below was performed to monitor the stabilization of an RNA structure upon ligand binding. In this experiment, absorbance at 260 nm was monitored as the temperature of the sample was increased. The increase in temperature causes the RNA to unfold, thereby allowing individual bases to absorb more ultraviolet light.

The subject of the next assay is AB-RNA-F. In words: Fluorescence SCAN assay, fluorescein-labelled AB-RNA-F and unlabelled oligonucleotide 67B. It is filed as binding. The note with it: for effect on fluorescence increase: FIG. 28B. As for the experimental part: B. Experimental results: While developing a SCAN assay based on FET between 3′-fluorescein labeled AB-RNA (AB-RNA-F) and a 5′-rhodamine labeled oligonucleotide, it was unexpectedly observed in a control experiment that a substantial increase in fluorescein emission at 535 nm occurred upon addition of an oligonucleotide carrying no fluorescent labels (FIG. 28A). Reactions containing 50 mM Tris pH 7.5, 200 mM NaCl, 10 mM MgCl2, and 60 nM AB-RNA-F were monitored at 535 nm emission (485 nm excitation) in a CytoFluor II fluorescence multi-well plate reader (PerSeptive Biosystems, Framingham,Mass.) for increasing times after the addition of oligonucleotide 67B. Because of the high reproducibility and sensitivity of fluorescence spectrophotometers, a 2-fold increase in fluorescence represents more that sufficient change in signal to use it as a sensitive assay. Therefore, the effect of ATP, GTP and UTP was tested in SCAN reactions containing AB-RNA-F and the unlabeled oligonucleotide 67B (FIG. 28B).

Assay [4] concerns the target AB-RNA. Nature of the assay: SCAN nitrocellulose filter binding assay, AB-RNA and biotinylated oligonucleotide 67B. As for the experimental part:
Adsorption to nitrocellulose filters: This embodiment takes advantage of the fact that most proteins tightly adsorb to nitrocellulose filters. When using a biotinylated oligonucleotide and a labelled target RNA, free SA or a SA derivative such as SA:alkaline phosphatase conjugate (SA:AP), SA:β-galactosidase (SA:BG), or other SA-conjugate or fusion protein, is added to the reaction to allow binding to the biotin moiety in the oligonucleotide. Subsequently, the reaction is filtered through 96-well nitrocellulose filter plates (Millipore, Bedford, Mass., HATF or NC). Labeled target RNA hybridized to the biotinylated oligonucleotide is retained in the filter through the adsorption of SA or its derivative to the filter, while unhybridized RNA passes through. […] Therefore, the use of SA fusion proteins or conjugates is preferred. An example of the use of this method is described in Example 3 below. SCAN reactions containing 100 nM radiolabeled AB-RNA and 250 nM biotinylated oligonucleotide 67B were incubated with increasing amounts of ATP or UTP as test ligands. In the absence of test ligand, 70% of AB-RNA was retained on NC-filters. Inhibition of RNA retention on NC-filters Inhibition of RNA retention on NC-filters (% inhibtion) was obtained as (1−(R/R0)×100), where R0 is retention without test ligand and R is retention with test ligand. […]

In another assay the test system is HIV RRE RNA. Nature of the assay: SCAN nitrocellulose filter binding assay, RRE RNA and biotinylated complementary oligonucleotide. To be noted: heterologous RNA target, FIG. 17. As for the experimental part: Adsorption to nitrocellulose filters: This embodiment takes advantage of the fact that most proteins tightly adsorb to nitrocellulose filters. When using a biotinylated oligonucleotide and a labelled target RNA, free SA or a SA derivative such as SA:alkaline phosphatase conjugate (SA:AP), SA:β-galactosidase (SA:BG), or other SA-conjugate or fusion protein, is added to the reaction to allow binding to the biotin moiety in the oligonucleotide. Subsequently, the reaction is filtered through 96-well nitrocellulose filter plates (Millipore, Bedford, Mass., HATF or NC). Labeled target RNA hybridized to the biotinylated oligonucleotide is retained in the filter through the adsorption of SA or its derivative to the filter, while unhybridized RNA passes through. […] Therefore, the use of SA fusion proteins or conjugates is preferred. An example of the use of this method is described in Example 3 below.
The target RNA was an RNA molecule containing the binding site for the HIV Rev protein (Rev Responsive Element, RRE; 5′-GAAUACUAUGGGCGCAGCGUCAAUGACGCUGACGGUACAGGCCAGACAAUUAUUGUCUGGUAUAGU-3′- SEQ ID NO:2) which had been labelled with 32P as described in Example 1 above. […] The filtrate was further washed with 400 μl of the same buffer and the amount of RRE retained in the filter was determined by liquid scintillation counting. […]

Assay [5] has as its system AB-RNA. In words: Gel shift assay: hybridization of radiolabelled AB-RNA to complementary DNA oligonucleotide RBS-87-8A. To be noted: 30 μM ligand. In kind it is binding. The source says: A gel shift protocol, though nominally a low-throughput method, is an important tool for the initial selection of the assay configuration for oligonucleotide-based methods to be used with each particular target RNA. Typically, the target RNA is transcribed in vitro, using as template a DNA that contains the sequence for the T7-RNA polymerase promoter followed by a region encoding the target RNA, and [^32P]-UTP to produce radiolabelled RNA. Conditions for the T7 RNA polymerase transcription reaction using oligonucleotide templates have been described by Milligan et al., Nuc. Acids Res., 15: 8783, 1987. The [^32P]-labelled target RNA is optionally heat denatured at 90° C. for 2 min and chilled on ice for 2 min, after which aliquots are incubated in the absence and presence of test ligands and increasing concentrations of a complementary oligonucleotide. The reaction mixtures are then resolved in polyacrylamide native gels containing or lacking the test ligands.
AB-RNA was transcribed using as template the DNA oligonucleotide RBS-87-8A, (5′-GGAACCTTGCCGGCACCGAAGTGCCGCAGTTTCTTCCCAAGGTTCCTATAGTGAGTCGTATTA-3′-SEQ ID NO:1), which contains the sequence for the T7-RNA polymerase promoter followed by a region encoding AB-RNA. [32P]-labelled AB-RNA was obtained by including [32P]-UTP in the transcription reaction. […]

The source of these data is patent US6503721B2, “Screen for compounds with affinity for nucleic acids” (Anadys Pharmaceuticals, Inc., priority 1995, dated 2003).

Molecules are shown by their SMILES.

Turning to `Nc1ncnc2c1ncn2[C@@H]1O[C@H](COP(=O)(O)OP(=O)(O)OP(=O)(O)O)[C@@H](O)[C@H]1O` [ATP], the IC50 with AB-RNA [1] (PMP-SA beads, room temperature, read-out: ligand concentration reducing the amount of hybrids formed by 50%) came out at 0.025 mM; with AB-RNA-F (60 nM AB-RNA-F, emission 535 nm, read-out: IC50 for inhibition of fluorescence increase), 5 mM; on AB-RNA [4] (100 nM AB-RNA, 250 nM oligonucleotide 67B, read-out: ligand concentration inhibiting AB-RNA retention on NC-filters by 50%), 5 mM. Moreover, in the assay on AB RNA [2], the “inhibition of oligo:RNA complex” value is “approximately 60%”. Also, the “temperature of new transition in first derivative of absorbance, seen only with ligand” value with AB RNA [3] (absorbance at 260 nm, FIG. 21) is 40 °C. The “effect of ligand on RNA structure” value with AB RNA [3] (thermal melting) is “stabilizes the RNA structure”. Besides, the “specificity factor ATP versus UTP” value in the assay on AB-RNA [4] (ratio of concentrations for 50% inhibition) was 100 fold. The “effect on RRE based SCAN reactions” value in the assay with HIV RRE RNA is reported as “no effect”.
`Nc1nc2c(ncn2[C@@H]2O[C@H](COP(=O)(O)OP(=O)(O)OP(=O)(O)O)[C@@H](O)[C@H]2O)c(=O)[nH]1` [GTP]: the “effect on fluorescence increase” value in the assay with AB-RNA-F was “no effect at all”.
With `O=c1ccn([C@@H]2O[C@H](COP(=O)(O)OP(=O)(O)OP(=O)(O)O)[C@@H](O)[C@H]2O)c(=O)[nH]1` [UTP], in the assay with AB-RNA [5], the “competition with the oligonucleotide for binding to AB-RNA” value is recorded as “unable to compete”. Also, the “effect on amount of hybrids bound to PMP-SA beads” value in the assay on AB-RNA [1] (increasing ligand concentrations) was “no effect”. In the assay with AB-RNA-F, the “effect on fluorescence increase” value is listed as “some effect at much higher concentrations”.
